The values that follow are results of earlier work, collected in US7276520B2, “Bicyclic piperidine derivatives as melanocortin-4 receptor agonists” (Merck & Co., Inc., priority 2003, dated 2007).

The test system of data set [1] is erectile dysfunction. As to conditions: for duration of effect / onset of action: after an oral dose; for share of men/patients in whom the drug is effective (adequate response): oral.
For data set [2] the following is noted: in vivo, po.
Data set [3] deals with males with psychogenic erectile dysfunction.

Turning to `Cc1ccc(N(CC2=NCCN2)c2cccc(O)c2)cc1` [phentolamine], in data set [1], the duration of effect is 2 h, the onset of action was 5 to 30 min and the “share of men/patients in whom the drug is effective (adequate response)” value is 35-40%.

In the case of `CCCc1nn(C)c2c(=O)[nH]c(-c3cc(S(=O)(=O)N4CCN(C)CC4)ccc3OCC)nc12` [sildenafil], in data set [1], the duration of effect result is reported as “about 4 hours”, the onset of action is 30 to 60 min and the “share of men/patients in whom the drug is effective (adequate response)” value is listed as “about 70%”.

On to “Ac-Nle-c[Asp-His-DPhe-Arg-Trp-Lys]-NH2 [MT-II]”, for which the “absorption into the systemic circulation” value in data set [2] is recorded as “not absorbed into the systemic circulation”. Moreover, in data set [3] (injected intramuscularly or subcutaneously, psychogenic erectile dysfunction), the response rate is listed as 75%. In data set [3] (subcutaneous injection), the duration of action entry is given as “approximately 2.5 hours” and the “time to onset of erection” value is 10 to 20 min.
